± gives the uncertainty stated by the source.
Experiment: xn = mol fraction of the nth substance listed

CCCC[N+](CCCC)(CCCC)CCCC.[OH-] + O
viscosity [mPa·s], 101 kPa
Settings	x1 = 0.00178	x1 = 0.00364	x1 = 0.007655	x1 = 0.0121	x1 = 0.01706	x1 = 0.02262	x1 = 0.0289
298.15 K	1.232 ± 0.022	1.332 ± 0.024	1.432 ± 0.026	2.03 ± 0.036	2.632 ± 0.047	3.779 ± 0.068	4.942 ± 0.088
303.15 K	1.088 ± 0.019	1.173 ± 0.021	1.258 ± 0.022	1.697 ± 0.03	2.233 ± 0.04	3.129 ± 0.056	4.045 ± 0.072
313.15 K	0.8712 ± 0.015	0.9342 ± 0.017	0.9951 ± 0.018	1.319 ± 0.024	1.659 ± 0.03	2.198 ± 0.039	2.857 ± 0.051
323.15 K	0.716 ± 0.013	0.7632 ± 0.013	0.8107 ± 0.014	1.04 ± 0.018	1.289 ± 0.023	1.692 ± 0.03	2.115 ± 0.038

O=CO + c1ccncc1
viscosity [mPa·s], 101 kPa
Settings	298.15 K	323.15 K
x1 = 0.1605	0.9921 ± 0.026	0.7018 ± 0.019
x1 = 0.3041	1.235 ± 0.033	0.8411 ± 0.022
x1 = 0.4426	1.783 ± 0.047	1.154 ± 0.031
x1 = 0.5254	2.414 ± 0.064	1.515 ± 0.04
x1 = 0.6438	4.255 ± 0.11	2.347 ± 0.063
x1 = 0.7065	5.476 ± 0.15	2.846 ± 0.077
x1 = 0.7478	6.13 ± 0.17	3.143 ± 0.085
x1 = 0.7762	6.161 ± 0.17	3.202 ± 0.087
x1 = 0.8243	5.312 ± 0.14	2.873 ± 0.077
x1 = 0.8859	3.778 ± 0.1	2.192 ± 0.058
x1 = 0.9381	2.657 ± 0.071	1.616 ± 0.043

CCCCCBr + C1CCCCC1
308.15 K, 101 kPa
Settings	viscosity [mPa·s]
x2 = 0.0975	0.6428 ± 0.0052
x2 = 0.1991	0.6363 ± 0.005
x2 = 0.2997	0.6323 ± 0.0049
x2 = 0.398	0.6305 ± 0.0048
x2 = 0.5025	0.6321 ± 0.0047
x2 = 0.5837	0.6355 ± 0.0046
x2 = 0.695	0.645 ± 0.0046
x2 = 0.8018	0.6614 ± 0.0046
x2 = 0.9007	0.6894 ± 0.0047

CC(Cl)(Cl)Cl + CC(=O)CC(C)C
298.15 K, 101.33 kPa
Settings	viscosity [mPa·s]
x2 = 0.0803	0.739 ± 0.007
x2 = 0.1769	0.694 ± 0.007
x2 = 0.2653	0.665 ± 0.007
x2 = 0.3765	0.634 ± 0.006
x2 = 0.4692	0.614 ± 0.006
x2 = 0.5907	0.594 ± 0.006
x2 = 0.7245	0.573 ± 0.006
x2 = 0.8536	0.558 ± 0.006

O=CO + CCC(C)=O
viscosity [mPa·s], 101 kPa
Settings	x1 = 0.1013	x1 = 0.2006	x1 = 0.3007	x1 = 0.3962	x1 = 0.4985	x1 = 0.602	x1 = 0.7014	x1 = 0.7972	x1 = 0.9011
298.15 K	0.4271 ± 0.011	0.4706 ± 0.013	0.5282 ± 0.014	0.5841 ± 0.015	0.6726 ± 0.018	0.7807 ± 0.021	0.9125 ± 0.024	1.078 ± 0.029	1.309 ± 0.035
308.15 K	0.3863 ± 0.01	0.4247 ± 0.011	0.4703 ± 0.013	0.5186 ± 0.014	0.5915 ± 0.016	0.6799 ± 0.018	0.787 ± 0.021	0.9165 ± 0.024	1.095 ± 0.029
318.15 K	0.3479 ± 0.0094	0.3801 ± 0.01	0.4183 ± 0.011	0.458 ± 0.012	0.5195 ± 0.014	0.5896 ± 0.016	0.6771 ± 0.018	0.7866 ± 0.021	0.9246 ± 0.025

CC(Cl)(Cl)Cl + CC(C)=O
298.15 K, 101.33 kPa
Settings	viscosity [mPa·s]
x1 = 0.102	0.3356 ± 0.0039
x1 = 0.2	0.3677 ± 0.0042
x1 = 0.302	0.4042 ± 0.0045
x1 = 0.401	0.4432 ± 0.0048
x1 = 0.501	0.4862 ± 0.0052
x1 = 0.549	0.5085 ± 0.0054
x1 = 0.551	0.5098 ± 0.0054
x1 = 0.601	0.5341 ± 0.0056
x1 = 0.649	0.5591 ± 0.0058
x1 = 0.651	0.56 ± 0.0058
x1 = 0.701	0.5875 ± 0.0061
x1 = 0.75	0.6158 ± 0.0063
x1 = 0.794	0.6443 ± 0.0066
x1 = 0.852	0.6824 ± 0.0069

CC(Cl)(Cl)Cl + CCC(C)O
298.15 K, 101 kPa
Settings	viscosity [mPa·s]
x1 = 0.099	2.21 ± 0.017
x1 = 0.2079	1.726 ± 0.014
x1 = 0.2768	1.46 ± 0.012
x1 = 0.3656	1.225 ± 0.01
x1 = 0.5119	1.008 ± 0.009
x1 = 0.5786	0.94 ± 0.009
x1 = 0.6988	0.85 ± 0.008
x1 = 0.78	0.808 ± 0.008
x1 = 0.8911	0.781 ± 0.008

CC(Cl)(Cl)Cl + CCOC(C)=O
Settings	viscosity [mPa·s]
298.15 K, 101.33 kPa, x1 = 0.098	0.4485 ± 0.0048
298.15 K, 101.33 kPa, x1 = 0.197	0.4712 ± 0.005
298.15 K, 101.33 kPa, x1 = 0.297	0.4964 ± 0.0052
298.15 K, 101.33 kPa, x1 = 0.398	0.5244 ± 0.0055
298.15 K, 101.33 kPa, x1 = 0.498	0.5554 ± 0.0057
298.15 K, 101.33 kPa, x1 = 0.598	0.5901 ± 0.006
298.15 K, 101.33 kPa, x1 = 0.699	0.6295 ± 0.0064
298.15 K, 101.33 kPa, x1 = 0.771	0.665 ± 0.0067
298.15 K, 101.33 kPa, x1 = 0.885	0.7192 ± 0.0072
303.15 K, 101.3 kPa, x2 = 0.1006	0.6668 ± 0.0059
303.15 K, 101.3 kPa, x2 = 0.1989	0.6158 ± 0.0057
303.15 K, 101.3 kPa, x2 = 0.2986	0.5731 ± 0.0055
303.15 K, 101.3 kPa, x2 = 0.4038	0.5366 ± 0.0054
303.15 K, 101.3 kPa, x2 = 0.4965	0.5101 ± 0.0053
303.15 K, 101.3 kPa, x2 = 0.5999	0.4831 ± 0.0052
303.15 K, 101.3 kPa, x2 = 0.7003	0.4579 ± 0.0051
303.15 K, 101.3 kPa, x2 = 0.7974	0.4366 ± 0.005
303.15 K, 101.3 kPa, x2 = 0.9008	0.4167 ± 0.0049

CC(Cl)(Cl)Cl + Cc1ccccc1
303.15 K, 101 kPa
Settings	viscosity [mPa·s]
x1 = 0.1635	0.5716 ± 0.015
x1 = 0.2871	0.6046 ± 0.016
x1 = 0.3684	0.6248 ± 0.016
x1 = 0.4152	0.6363 ± 0.016
x1 = 0.4825	0.6505 ± 0.017
x1 = 0.5694	0.6666 ± 0.017
x1 = 0.6729	0.6834 ± 0.018
x1 = 0.763	0.6958 ± 0.018
x1 = 0.8412	0.7049 ± 0.018
x1 = 0.9286	0.7156 ± 0.018

[Cl-].[Cl-].[Cl-].[La+3] + O
viscosity [mPa·s]
Settings	293.15 K	298.15 K	303.15 K	308.15 K	318.15 K
100 kPa, x1 = 0.000538	1.026 ± 0.012	0.9124 ± 0.01	0.8179 ± 0.0095	0.7374 ± 0.0086	–
100 kPa, x1 = 0.000907	1.037 ± 0.012	0.922 ± 0.011	0.8265 ± 0.0096	0.7452 ± 0.0087	–
100 kPa, x1 = 0.001802	–	0.9485 ± 0.011	0.8506 ± 0.0098	0.7674 ± 0.0089	–
100 kPa, x1 = 0.003595	1.12 ± 0.013	0.9971 ± 0.011	0.8947 ± 0.01	0.8106 ± 0.0094	–
100 kPa, x1 = 0.005372	–	–	0.9462 ± 0.011	0.857 ± 0.0099	–
100 kPa, x1 = 0.007147	–	–	–	0.9116 ± 0.01	–
100 kPa, x1 = 0.008936	–	–	1.076 ± 0.012	0.9725 ± 0.011	–
100 kPa, x1 = 0.0107	–	–	–	1.041 ± 0.012	–
101 kPa, x1 = 0.008899	–	–	1.075 ± 0.013	–	–
101.3 kPa, x1 = 0.0009	1.037 ± 0.022	0.9217 ± 0.02	0.8261 ± 0.018	0.7453 ± 0.016	0.618 ± 0.013
101.3 kPa, x1 = 0.0018	–	–	–	0.7687 ± 0.016	0.6382 ± 0.013
101.3 kPa, x1 = 0.00893	–	–	1.076 ± 0.023	0.9735 ± 0.021	0.8112 ± 0.017
101.3 kPa, x1 = 0.0177	1.818 ± 0.039	1.623 ± 0.034	1.46 ± 0.031	1.322 ± 0.028	1.102 ± 0.023
101.3 kPa, x1 = 0.02631	2.522 ± 0.054	2.246 ± 0.048	2.016 ± 0.043	1.824 ± 0.039	1.516 ± 0.032
101.3 kPa, x1 = 0.03478	3.611 ± 0.077	3.199 ± 0.068	2.857 ± 0.061	2.573 ± 0.054	2.12 ± 0.045
101.3 kPa, x1 = 0.0431	5.287 ± 0.11	4.642 ± 0.099	4.114 ± 0.088	3.678 ± 0.078	2.992 ± 0.063
101.3 kPa, x1 = 0.05127	7.977 ± 0.17	6.922 ± 0.15	6.069 ± 0.13	5.371 ± 0.11	4.29 ± 0.091

O=C(O)CC(O)(CC(=O)O)C(=O)O + CC(O)CO
101.3 kPa, x1 = 0.333
Settings	viscosity [mPa·s]
298 K	2188 ± 130
323 K	571 ± 23

CC(Cl)(Cl)Cl + CCO
viscosity [mPa·s], 101.32 kPa
Settings	x2 = 0.1602	x2 = 0.3002	x2 = 0.4237	x2 = 0.5336	x2 = 0.6318	x2 = 0.7202	x2 = 0.8001	x2 = 0.8728	x2 = 0.9392
303.15 K	0.705 ± 0.071	0.745 ± 0.075	0.778 ± 0.078	0.839 ± 0.084	0.87 ± 0.087	0.902 ± 0.091	0.924 ± 0.093	0.942 ± 0.095	0.984 ± 0.099
313.15 K	0.614 ± 0.062	0.669 ± 0.067	0.683 ± 0.069	0.71 ± 0.071	0.745 ± 0.075	0.761 ± 0.076	0.784 ± 0.079	0.807 ± 0.081	0.819 ± 0.082
323.15 K	0.56 ± 0.056	0.597 ± 0.06	0.604 ± 0.061	0.614 ± 0.062	0.639 ± 0.064	0.655 ± 0.066	0.664 ± 0.067	0.684 ± 0.069	0.692 ± 0.069
